The target of this assay is ERα receptor (Homo sapiens (Human), UniProt P03372). As to the kind of experiment: PRα induction assay in MCF7 cells (ERα agonism). Type of assay: cell-based. The procedure:
The purpose of the following PRα induction assay is to determine whether a test compound has agonistic activity against ERα receptor (an agonist would be expected to activate the receptor).
Culture MCF7 (purchased from ATCC HTB-22) in DMEM media supplemented with 10% FBS, 0.01 mg/mL human insulin 1 and 1% penicillin/streptomycin antibiotics and plate the cells (prior to becoming 70% confluent) in 384-well flat-bottom plates at a density of 4,000 cells per well in 20 μL volume in DMEM phenol red free media containing 10% FBS (charcoal stripped). Incubate the cells overnight in a cell culture incubator (5% CO2, 95% relative humidity at 37° C.) and allow the cells to attach to the plate. The following day, dose the cells with test compound. Use an Echo 555 acoustic dispenser to prepare compound serial dilutions (1:3) in a range from 6 μM to 0.0003 μM. Dose the cells with the addition of the test compound (5 μL) from the serial dilution plate to the cell plate producing a final DMSO concentration of 0.2% with a final concentration of the test compound dose range between 2 and 0.0001 μM. For the maximum point use media containing 0.2% of DMSO and for the minimum point, use fulvestrant diluted at […] final concentrations in the growth media containing 0.2% DMSO. After dosing with the test compound, incubate the cell plates at 37° C. and 5% CO2 for 24 hours. Fix the cells by adding 14% para-formaldehyde (10 μL) for 30 minutes at room temperature. Wash cells once with PBS (20 μL) and incubate with PBS (20 μL) containing 0.5% (v/v) TWEEN® 20 for 1 hour. Wash cells twice with PBS (20 μL) containing 0.05% TWEEN® 20 and block with 3% BSA in PBS containing 0.05% TWEEN® 20 and 0.1% TRITON™ X-100 (20 μL/well) for 1 hour at room temperature. […]
The following day, wash cells with PBS 0.05% TWEEN® 20 (2×20 μL) and incubate with secondary antibody (20 μL/well) (1:1000 dilution, Goat anti-rabbit IgM ALEXA FLUOR™ 488) in PBS 1% BSA for 105 minutes at room temperature. […] Scan plates with ACUMEN EXPLORER™ [Laser-scanning fluorescence microplate cytometer manufactured by TTP LABTECH LTD] to measure PRα. […]
Sequence of ERα receptor (P03372 whole entry): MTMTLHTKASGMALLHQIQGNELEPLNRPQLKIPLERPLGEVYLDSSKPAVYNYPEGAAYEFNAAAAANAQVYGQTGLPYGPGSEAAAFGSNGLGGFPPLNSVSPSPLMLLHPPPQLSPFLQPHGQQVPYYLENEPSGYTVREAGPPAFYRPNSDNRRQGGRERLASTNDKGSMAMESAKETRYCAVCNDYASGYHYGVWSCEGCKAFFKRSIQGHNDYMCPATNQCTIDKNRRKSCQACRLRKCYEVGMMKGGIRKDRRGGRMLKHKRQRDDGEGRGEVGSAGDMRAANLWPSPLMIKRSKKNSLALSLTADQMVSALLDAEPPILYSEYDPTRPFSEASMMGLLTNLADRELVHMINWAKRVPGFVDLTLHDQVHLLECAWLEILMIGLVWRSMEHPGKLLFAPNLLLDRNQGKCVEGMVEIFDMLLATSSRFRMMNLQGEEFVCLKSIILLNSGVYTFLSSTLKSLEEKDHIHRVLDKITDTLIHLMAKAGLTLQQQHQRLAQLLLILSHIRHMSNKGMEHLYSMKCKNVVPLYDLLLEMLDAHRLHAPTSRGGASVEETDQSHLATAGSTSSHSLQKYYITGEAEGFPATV
Take `Oc1ccc2c3c(cnc2c1)-c1ccc(C(F)(F)F)cc1OC3c1ccc(OCCN2CC(CF)C2)cc1` (racemic) [Example 1, Racemic 5-(4-{2-[3-(Fluoromethyl)azetidin-1-yl]ethoxy}phenyl)-8-(trifluoromethyl)-5H-[1]benzopyrano[4,3-c]quinolin-2-ol]: the “agonistic activity (PRα induction)” value is given as “no significant agonistic activity”.
In the case of `Oc1ccc2c3c(cnc2c1)-c1ccc(C(F)(F)F)cc1OC3c1ccc(OCCN2CC(CF)C2)cc1` (single isomer, unassigned; isomer 1) [Example 1A, 5-(4-{2-[3-(Fluoromethyl)azetidin-1-yl]ethoxy}phenyl)-8-(trifluoromethyl)-5H-[1]benzopyrano[4,3-c]quinolin-2-ol, Isomer 1] it was “no significant agonistic activity”.
Regarding `Oc1ccc2c3c(cnc2c1)-c1ccc(C(F)(F)F)cc1OC3c1ccc(OCCN2CC(CF)C2)cc1` (single isomer, unassigned; isomer 2) [Example 1B, 5-(4-{2-[3-(Fluoromethyl)azetidin-1-yl]ethoxy}phenyl)-8-(trifluoromethyl)-5H-[1]benzopyrano[4,3-c]quinolin-2-ol, Isomer 2], the “agonistic activity (PRα induction)” value was “no significant agonistic activity”.

The values above are taken from patent US11634426B2, “Selective estrogen receptor degraders” (Eli Lilly and Company, priority 2018, dated 2023).
